Data taken from US20190292167A1, “HETEROAROMATIC COMPOUNDS USEFUL FOR THE TREATMENT OF PROLIFERATIVE DISEASES” (Syros Pharmaceuticals, Inc., priority 2013, published 2019).
Structures can show the parent of a compound that is named as a salt. Where two headings read alike, the source gives them in different places.

Key:
[1] = molecular target: T1, CDK7 (Homo sapiens, UniProt P50613); assay: Adapta kinase assay (Life Technologies) against CDK7, co-factors cyclin H and MNAT1; format: biochemical; conditions: read-out: CDK7 Inhibition
T1 construct: purchased Life Technologies (Adapta kinase assay service)
T1 sequence (P50613 whole entry): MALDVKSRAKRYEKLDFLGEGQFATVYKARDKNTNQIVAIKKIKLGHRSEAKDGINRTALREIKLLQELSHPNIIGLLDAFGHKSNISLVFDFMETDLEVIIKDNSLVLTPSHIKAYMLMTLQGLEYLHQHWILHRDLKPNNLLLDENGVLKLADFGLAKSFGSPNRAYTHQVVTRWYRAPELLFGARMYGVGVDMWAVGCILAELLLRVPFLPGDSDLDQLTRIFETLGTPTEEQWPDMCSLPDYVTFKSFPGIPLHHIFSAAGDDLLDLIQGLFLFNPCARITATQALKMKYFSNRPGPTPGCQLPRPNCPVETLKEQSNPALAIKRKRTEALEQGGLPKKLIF
T1 sequence (P51946 whole entry partner): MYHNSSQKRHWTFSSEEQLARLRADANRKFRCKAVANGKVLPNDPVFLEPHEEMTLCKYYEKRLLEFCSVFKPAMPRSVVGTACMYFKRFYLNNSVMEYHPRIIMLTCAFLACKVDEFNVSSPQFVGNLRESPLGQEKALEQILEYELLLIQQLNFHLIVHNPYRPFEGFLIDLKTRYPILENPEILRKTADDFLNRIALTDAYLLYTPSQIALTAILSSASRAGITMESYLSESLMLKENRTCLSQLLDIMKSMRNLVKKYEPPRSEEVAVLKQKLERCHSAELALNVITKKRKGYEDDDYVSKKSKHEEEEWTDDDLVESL
T1 sequence (P51948 whole entry partner): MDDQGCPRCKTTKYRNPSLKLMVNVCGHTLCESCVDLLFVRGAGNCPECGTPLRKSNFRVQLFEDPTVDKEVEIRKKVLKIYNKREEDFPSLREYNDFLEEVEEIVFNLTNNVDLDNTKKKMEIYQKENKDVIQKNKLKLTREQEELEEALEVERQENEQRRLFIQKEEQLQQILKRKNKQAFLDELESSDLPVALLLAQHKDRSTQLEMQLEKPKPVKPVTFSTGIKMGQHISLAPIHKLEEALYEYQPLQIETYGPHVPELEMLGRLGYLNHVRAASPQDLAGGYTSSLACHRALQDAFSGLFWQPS
Protocol: Compounds of the invention were assayed for activity against CDK7 at Life Technologies™ (Grand Island, N.Y.) using their commercially available Adapta® kinase assay services. […] Details of the assay, including the substrate used for CDK7 kinase, are available on the Life Technologies web site (http://www.lifetechnologies.com/us/en/homellife-science/drug-discovery/target-and-lead-identification-and-validation/kinasebiology/kinase-activity-assays.html).
The co-factors used for the assay were cyclin H and MNAT1.

[2] = system: Jurkat; assay: Inhibition of cell proliferation, CellTiter-Glo, 72 hour; format: cell-based; conditions: Homo sapiens, Jurkat, 72 h, read-out: Inhibition of Proliferation of Jurkat Cells
Protocol: The following cancer cell lines were tested with the media conditions indicated: […]

[3] = Blood cancer cell line, 72 hour

| Compound | IC50 [1] | IC50 [2, 3] | IC50 [2] |
| --- | --- | --- | --- |
| CC(=O)Nc1ccc(CN2CCC(Nc3ncc(Cl)c(-c4c[nH]c5ccccc45)n3)CC2)cc1 [Compound 47, N-(4-((4-(5-chloro-4-(1H-indol-3-yl)pyrimidin-2-ylamino)piperidin-1-yl)methyl)phenyl)acetamide] | 0.1 to 1 µM | 0.5 to 5 µM | – |
| Nc1ccc(CN2CCC(Nc3ncc(Cl)c(-c4c[nH]c5ccccc45)n3)CC2)cc1 [Compound 48, N-(1-(4-aminobenzyl)piperidin-4-yl)-5-chloro-4-(1H-indol-3-yl)pyrimidin-2-amine.HCl] | 0.1 to 1 µM | 0.5 to 5 µM | – |
| Cc1cc(N)ccc1C(=O)N1CCC(Nc2ncc(Cl)c(-c3c[nH]c4ccccc34)n2)CC1 [Compound 63, (4-amino-2-methylphenyl)(4-(5-chloro-4-(1H-indol-3-yl)pyrimidin-2-ylamino)piperidin-1-yl)methanone] | 0.1 to 1 µM | > 5 µM | – |
| Nc1ccc(C(=O)N2CCC(Nc3ncc(Cl)c(-c4c[nH]c5ccccc45)n3)CC2)c(F)c1 [Compound 67, (4-amino-2-fluorophenyl)(4-(5-chloro-4-(1H-indol-3-yl)pyrimidin-2-ylamino)piperidin-1-yl)methanone] | 0.1 to 1 µM | 0.5 to 5 µM | – |
| N#Cc1cnc(N[C@@H]2CCN(C(=O)c3ccc(NC(=O)/C=C/CN4CCOCC4)cc3)C2)nc1-c1c[nH]c2ccccc12 [Compound 107, (E)-N-(4-((R)-3-(5-cyano-4-(1H-indol-3-yl)pyrimidin-2-ylamino)pyrrolidine-1-carbonyl)phenyl)-4-morpholinobut-2-enamide] | < 0.1 µM | < 0.5 µM | – |
| N#Cc1cnc(N[C@@H]2CCN(C(=O)c3ccc(NC(=O)/C=C/CN4CCCC4)cc3)C2)nc1-c1c[nH]c2ccccc12 [Compound 108, (E)-N-(4-((R)-3-(5-cyano-4-(1H-indol-3-yl)pyrimidin-2-ylamino)pyrrolidine-1-carbonyl)phenyl)-4-(pyrrolidin-1-yl)but-2-enamide] | < 0.1 µM | < 0.5 µM | – |
| N#Cc1cnc(N[C@@H]2CCN(C(=O)c3ccc(NC(=O)/C=C/Cn4ccnc4)cc3)C2)nc1-c1c[nH]c2ccccc12 [Compound 109, (E)-N-(4-((R)-3-(5-cyano-4-(1H-indol-3-yl)pyrimidin-2-ylamino)pyrrolidine-1-carbonyl)phenyl)-4-(1H-imidazol-1-yl)but-2-enamide] | < 0.1 µM | – | < 0.5 µM |
| CN1CCN(C/C=C/C(=O)Nc2ccc(C(=O)N3CC[C@@H](Nc4ncc(C#N)c(-c5c[nH]c6ccccc56)n4)C3)cc2)CC1 [Compound 110, (E)-N-(4-((R)-3-(5-cyano-4-(1H-indol-3-yl)pyrimidin-2-ylamino)pyrrolidine-1-carbonyl)phenyl)-4-(4-methylpiperazin-1-yl)but-2-enamide] | < 0.1 µM | < 0.5 µM | – |
| CN(C/C=C/C(=O)Nc1ccc(C(=O)N2CC[C@@H](Nc3ncc(C#N)c(-c4c[nH]c5ccccc45)n3)C2)cc1)CCO [Compound 111, (E)-N-(4-((R)-3-(5-cyano-4-(1H-indol-3-yl)pyrimidin-2-ylamino)pyrrolidine-1-carbonyl)phenyl)-4-((2-hydroxyethyl)(methyl)amino)but-2-enamide] | < 0.1 µM | < 0.5 µM | – |
| CN(C)C/C=C/C(=O)Nc1ccc(C(=O)N2CCC(Nc3ncc(Cl)c(-c4c[nH]c5ccccc45)n3)CC2)cc1F [Compound 112, (E)-N-(4-(4-(5-chloro-4-(1H-indol-3-yl)pyrimidin-2-ylamino)piperidine-1-carbonyl)-2-fluorophenyl)-4-(dimethylamino)but-2-enamide] | < 0.1 µM | < 0.5 µM | – |
| Cc1cc(C(=O)N2CCC(Nc3ncc(Cl)c(-c4c[nH]c5ccccc45)n3)CC2)ccc1NC(=O)/C=C/CN(C)C [Compound 113, (E)-N-(4-(4-(5-chloro-4-(1H-indol-3-yl)pyrimidin-2-ylamino)piperidine-1-carbonyl)-2-methylphenyl)-4-(dimethylamino)but-2-enamide] | < 0.1 µM | < 0.5 µM | – |
| Cc1cc(NC(=O)/C=C/CN(C)C)ccc1C(=O)N1CCC(Nc2ncc(Cl)c(-c3c[nH]c4ccccc34)n2)CC1 [Compound 114, (E)-N-(4-(4-(5-chloro-4-(1H-indol-3-yl)pyrimidin-2-ylamino)piperidine-1-carbonyl)-3-methylphenyl)-4-(dimethylamino)but-2-enamide] | < 0.1 µM | < 0.5 µM | – |
| CN(C)C/C=C/C(=O)Nc1ccc(C(=O)N2CCC(Nc3ncc(Cl)c(-c4c[nH]c5ccccc45)n3)CC2)c(F)c1 [Compound 115, (E)-N-(4-(4-(5-chloro-4-(1H-indol-3-yl)pyrimidin-2-ylamino)piperidine-1-carbonyl)-3-fluorophenyl)-4-(dimethylamino)but-2-enamide] | < 0.1 µM | < 0.5 µM | – |
| CN(C)C/C=C/C(=O)Nc1ccc(C(=O)N2[C@@H]3CC[C@H]2C[C@@H](Nc2ncc(Cl)c(-c4c[nH]c5ccccc45)n2)C3)cc1 [Compound 116, ((1R,3R,5S)-3-(5-chloro-4-(1H-indol-3-yl)pyrimidin-2-ylamino)-8-aza-bicyclo[3.2.1]octan-8-yl)(4-((E)-N-4-(dimethylamino)but-2-enamide)phenyl)methanone] | 0.1 to 1 µM | 0.5 to 5 µM | – |

More lines, main results first:

| IC50 [1] | IC50 [2, 3] | Compound | IC50 [2] |
| --- | --- | --- | --- |
| < 0.1 µM | > 5 µM | Nc1ccc(S(=O)(=O)N2CC[C@@H](Nc3ncc(Cl)c(-c4c[nH]c5ccccc45)n3)C2)cc1 [Compound 32, N—((R)-1-(4-aminophenylsulfonyl)pyrrolidin-3-yl)-5-chloro-4-(1H-indol-3-yl)pyrimidin-2-amine] | – |
| < 0.1 µM | 0.5 to 5 µM | Nc1ccc(C(=O)N2CC[C@@H](Nc3ncc(Cl)c(-c4c[nH]c5ccccc45)n3)C2)cc1 [Compound 35, (4-aminophenyl)((R)-3-(5-chloro-4-(1H-indol-3-yl)pyrimidin-2-ylamino)pyrrolidin-1-yl)methanone] | – |
| < 0.1 µM | 0.5 to 5 µM | N#Cc1cnc(N[C@@H]2CCN(C(=O)c3ccc(N)cc3)C2)nc1-c1c[nH]c2ccccc12 [Compound 37, 2-((R)-1-(4-aminobenzoyl)pyrrolidin-3-ylamino)-4-(1H-indol-3-yl)pyrimidine-5-carbonitrile] | – |
| < 0.1 µM | 0.5 to 5 µM | Nc1ccc(C(=O)N2CCC(Nc3ncc(Cl)c(-c4c[nH]c5ccccc45)n3)CC2)cc1F [Compound 55, (4-amino-3-fluorophenyl)(4-(5-chloro-4-(1H-indol-3-yl)pyrimidin-2-ylamino)piperidin-1-yl)methanone] | – |
| < 0.1 µM | < 0.5 µM | Cc1cc(C(=O)N2CCC(Nc3ncc(Cl)c(-c4c[nH]c5ccccc45)n3)CC2)ccc1N [Compound 59, (4-amino-3-methylphenyl)(4-(5-chloro-4-(1H-indol-3-yl)pyrimidin-2-ylamino)piperidin-1-yl)methanone] | – |
| < 0.1 µM | 0.5 to 5 µM | CN(C)C/C=C/C(=O)Nc1ccc(S(=O)(=O)N2CC[C@@H](Nc3ncc(Cl)c(-c4c[nH]c5ccccc45)n3)C2)cc1 [Compound 105, (E)-N-(4-((R)-3-(5-chloro-4-(1H-indol-3-yl)pyrimidin-2-ylamino)pyrrolidin-1-ylsulfonyl)phenyl)-4-(dimethylamino)but-2-enamide] | – |
| < 0.1 µM | < 0.5 µM | CN(C)C/C=C/C(=O)Nc1ccc(CN2CCC(Nc3ncc(Cl)c(-c4c[nH]c5ccccc45)n3)CC2)cc1 [Compound 106, (E)-N-(4-((4-((5-chloro-4-(1H-indol-3-yl)pyrimidin-2-yl)amino)piperidin-1-yl)methyl)phenyl)-4-(dimethylamino)but-2-enamide] | – |
